± gives the expanded uncertainty stated by the source.
Test: molar heat capacity at constant pressure
Conditions: 101.33 kPa, Crystal, Vacuum adiabatic calorimetry

O=C([O-])c1ccccc1.[Na+] [sodium benzoate]
Conditions	molar heat capacity at constant pressure [J/K/mol]
78.86 K	74.66 ± 0.47
80.43 K	75.06 ± 0.47
82.62 K	76.58 ± 0.48
84.79 K	77.94 ± 0.49
87.06 K	79 ± 0.49
89.08 K	80.34 ± 0.5
91.16 K	81.6 ± 0.53
93.24 K	82.94 ± 0.54
95.32 K	83.73 ± 0.54
97.26 K	84.83 ± 0.55
99.2 K	86.09 ± 0.56
101.14 K	87.27 ± 0.56
103.01 K	88.2 ± 0.57
104.89 K	89.11 ± 0.57
106.3 K	89.81 ± 0.58
107.72 K	90.52 ± 0.58
109.44 K	91.63 ± 0.59
111.32 K	92.54 ± 0.59
113.05 K	93.55 ± 0.6
114.93 K	94.67 ± 0.6
116.5 K	95.37 ± 0.61
118.38 K	95.98 ± 0.61
120.05 K	97.43 ± 0.62
122.61 K	98.9 ± 0.63
126.31 K	100.57 ± 0.64
129.87 K	102.54 ± 0.65
133.42 K	104.11 ± 0.66
137.05 K	105.58 ± 0.67
140.25 K	107.64 ± 0.68
143.52 K	109.31 ± 0.69
146.93 K	111.38 ± 0.7
150.2 K	112.85 ± 0.71
153.61 K	114.42 ± 0.72
156.74 K	115.8 ± 0.73
159.94 K	117.1 ± 0.74
163.08 K	118.62 ± 0.75
166.41 K	120.71 ± 0.76
169.54 K	122.29 ± 0.77
172.67 K	124.15 ± 0.78
175.8 K	125.53 ± 0.79
178.78 K	127.2 ± 0.8
182.05 K	128.48 ± 0.81
186.18 K	130.74 ± 0.82
190.73 K	133.09 ± 0.83
194.71 K	134.96 ± 0.84
198.69 K	136.73 ± 0.85
202.67 K	138.89 ± 0.87
206.65 K	140.95 ± 0.88
210.78 K	143.02 ± 0.89
214.62 K	144.69 ± 0.9
218.6 K	147.24 ± 0.92
222.72 K	148.91 ± 0.93
226.56 K	150.78 ± 0.94
230.54 K	152.55 ± 0.95
234.67 K	154.3 ± 0.96
238.65 K	156.48 ± 0.97
242.63 K	158.35 ± 0.98
247.75 K	160.9 ± 1
252.79 K	162.99 ± 1
256.71 K	164.6 ± 1
260.69 K	166.7 ± 1
264.71 K	168.34 ± 1
268.8 K	170.63 ± 1.1
272.92 K	172.89 ± 1.1
276.9 K	174.76 ± 1.1
280.74 K	176.43 ± 1.1
284.72 K	178.39 ± 1.1
288.7 K	179.87 ± 1.1
292.69 K	181.54 ± 1.1
295.1 K	182.91 ± 1.1
298.37 K	184.58 ± 1.1
301.36 K	185.56 ± 1.1
304.35 K	186.94 ± 1.1
307.33 K	188.32 ± 1.2
310.32 K	189.49 ± 1.2
313.3 K	190.87 ± 1.2
316.29 K	191.75 ± 1.2
319.28 K	192.93 ± 1.2
322.12 K	194.21 ± 1.2
325.11 K	195.49 ± 1.2
327.81 K	196.77 ± 1.2
329.51 K	197.36 ± 1.2
332.93 K	198.63 ± 1.2
335.35 K	199.91 ± 1.2
338.05 K	200.79 ± 1.2
340.89 K	202.17 ± 1.2
343.88 K	202.96 ± 1.2
346.72 K	204.33 ± 1.3
349.42 K	205.02 ± 1.3
352.27 K	206.2 ± 1.3
355.25 K	207.28 ± 1.3
358.1 K	208.56 ± 1.3
360.85 K	209.38 ± 1.3
363.79 K	210.82 ± 1.3
366.63 K	212.19 ± 1.3
369.62 K	213.57 ± 1.3
372.46 K	214.53 ± 1.3
375.3 K	215.93 ± 1.3
378.15 K	217.2 ± 1.3
380.99 K	218.09 ± 1.3
383.98 K	219.66 ± 1.4
386.68 K	220.45 ± 1.4
389.52 K	221.82 ± 1.4
392.37 K	223.2 ± 1.4
395.21 K	224.18 ± 1.4
397.91 K	225.75 ± 1.4

— the NIST ThermoML archive (doi:10.1016/j.tca.2008.12.029)
